SMILES strings stand for the structures.

The target of this test is BTK (Homo sapiens (Human), UniProt Q06187). In words: kinase-tagged phage / affinity bead competition binding screen (qPCR readout). As to conditions: BTK versus SRC. (In qPCR the cycle at which signal appears reflects the starting amount.)
Sequence of BTK (Q06187 whole entry): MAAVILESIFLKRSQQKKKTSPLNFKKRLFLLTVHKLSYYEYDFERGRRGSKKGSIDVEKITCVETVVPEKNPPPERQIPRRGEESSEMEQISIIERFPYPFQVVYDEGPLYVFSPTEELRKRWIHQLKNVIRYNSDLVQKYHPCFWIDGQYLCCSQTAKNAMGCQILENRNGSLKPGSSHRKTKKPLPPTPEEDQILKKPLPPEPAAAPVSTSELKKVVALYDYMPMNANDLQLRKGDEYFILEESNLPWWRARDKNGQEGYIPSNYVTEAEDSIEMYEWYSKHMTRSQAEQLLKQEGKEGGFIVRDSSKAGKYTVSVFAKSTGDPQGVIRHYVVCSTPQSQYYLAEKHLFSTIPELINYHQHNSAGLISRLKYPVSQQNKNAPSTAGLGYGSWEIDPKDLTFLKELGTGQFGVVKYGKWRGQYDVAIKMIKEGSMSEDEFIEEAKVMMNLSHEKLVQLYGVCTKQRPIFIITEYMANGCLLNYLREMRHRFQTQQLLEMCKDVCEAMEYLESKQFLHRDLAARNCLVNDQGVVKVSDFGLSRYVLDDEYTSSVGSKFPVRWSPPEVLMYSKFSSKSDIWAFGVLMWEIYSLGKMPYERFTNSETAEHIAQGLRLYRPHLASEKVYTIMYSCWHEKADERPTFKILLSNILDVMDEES

As for `C=CC(=O)N1CCN(c2ccc(C(N)=O)c(-c3ccc(Oc4ccccc4)cc3)n2)CC1` [Example 5, 6-(4-acryloylpiperazin-1-yl)-2-(4-phenoxyphenyl)nicotinamide], the “Fold Difference” value is reported as above 100x.

Source of the values: patent US11345695B2, “Substituted nicotinimide inhibitors of BTK and their preparation and use in the treatment of cancer, inflammation and autoimmune disease” (GUANGZHOU INNOCARE PHARMA TECH CO., LTD., priority 2013, dated 2022).
